In experiment [1] the test system is Raji. The experiment is described as follows: Antiproliferative activity against human Raji cells assessed as reduction in cell growth incubated for 72 hrs by MTT assay. The format is functional, cell-based. In general terms: Tetrazolium assays rely on reduction of a dye to a coloured formazan, in cell work by metabolically active cells.
Experiment [2] deals with MCF7. The experiment in a line: Cytotoxicity activity against human MCF7 cells assessed as decreased cell viability. It counts as functional, cell-based.
Experiment [3] has as its system RAW264.7. The experiment is described as follows: Anti-inflammatory activity against mouse RAW264.7 cells assessed as inhibition of LPS-induced NO production at 50 ug/ml relative to control. The format is functional. On the set-up: scale not given: the % may be the effect or the level left. The conditions noted are these: dose 50 µg/ml.
Experiment [4] has as its system Mus musculus. The experiment is described as follows: Antiinflammatory activity in Swiss albino mouse model of carrageenan-induced paw edema assessed as reduction in paw edema. The format is functional. On the set-up: scale not given: the % may be the effect or the level left. In general terms: Carrageenan injected into the paw causes an acute inflammation.
For experiment [5], the system named is Plasmodium falciparum. The experiment in a line: Antimalarial activity against Plasmodium falciparum Dd2 by HRP2 assay. The format is functional, organism-based.
Experiment [6] deals with Plasmodium falciparum. The experiment in a line: Antimalarial activity against Plasmodium falciparum by LDH assay. It counts as functional, organism-based.
In experiment [7] the test system is HeLa. The experiment in a line: cells. The note with it: Homo sapiens.
Description: Cytotoxicity against human HeLa cells at 50 uM by MTT reduction assay
The subject of experiment [8] is K562. The experiment in a line: cells. The note with it: Homo sapiens.
Description: Cytotoxicity against human K562 cells at 50 uM by MTT reduction assay
Experiment [9] relates to LS180. The experiment in a line: cells. The conditions noted are these: Homo sapiens.
Description: Cytotoxicity against human LS180 cells at 50 uM by MTT reduction assay
The subject of experiment [10] is MCF7. The experiment in a line: Cytotoxicity against human MCF7 cells […] by MTT reduction assay. The format is functional, cell-based.
Experiment [11] concerns A549. The experiment in a line: Anticancer activity against human A549 cells assessed as reduction in cell viability. It counts as functional, cell-based.
For experiment [12], the system named is MCF7. The experiment in a line: Antiproliferative activity against human MCF7 cells assessed as inhibition of cell proliferation measured after 96 hrs by SRB assay. It counts as functional, cell-based. The note with it: MCF7, 96 h.
Experiment [13] relates to LS180. The experiment is described as follows: Anticancer activity against human LS180 assessed as inhibition in cell viability. The format is functional, cell-based.
For experiment [14], the system named is MCF7. The experiment is described as follows: Anticancer activity against human MCF7 cells assessed as reduction in cell viability. The format is functional, cell-based.
The species named for experiment [15] is Rattus norvegicus. The experiment in a line: Antifibrotic activity in Sprague-Dawley rat model of BDL induced hepatic fibrosis assessed as […] fibrotic potential. The format is functional.
Experiment [16] relates to Ehrlich. The experiment in a line: cells. The note with it: Mus musculus.
Description: Anticancer activity against mouse EAC cells assessed as reduction in cell viability
For experiment [17], the system named is Bacillus cereus. The experiment in a line: Antibacterial activity against Bacillus cereus assessed as reduction in microbial growth after 18 hrs by MTT based broth dilution method. The format is functional, organism-based. In general terms: In broth dilution the organism is exposed to a series of concentrations in liquid medium.
Experiment [18] is described as follows: Antiproliferative activity against human U87 cells assessed as reduction in cell viability by MTT assay. The format is functional, cell-based, U-87MG ATCC. The conditions noted are these: U-87 MG.
Experiment [19] deals with Penicillium chrysogenum. The experiment in a line: Antifungal activity against Penicillium chrysogenum assessed as zone of inhibition. The format is functional.
Experiment [20] relates to Aspergillus ochraceus. The experiment in a line: Antifungal activity against Aspergillus ochraceus assessed as zone of inhibition at 20 ug/ml. It counts as functional. The note with it: read-out: IZ.
For experiment [21], the system named is Aspergillus ochraceus. The experiment in a line: Antifungal activity against Aspergillus ochraceus assessed as zone of inhibition. It counts as functional.
Experiment [22] relates to Bacillus cereus. The experiment in a line: Antibacterial activity against Bacillus cereus assessed as zone of inhibition. The format is functional.
Experiment [23] deals with Serratia marcescens. The experiment in a line: Antibacterial activity against Serratia marcescens assessed as zone of inhibition. It counts as functional.
In experiment [24] the test system is Proteus mirabilis. The experiment in a line: Antibacterial activity against Proteus mirabilis assessed as zone of inhibition. The format is functional.
For experiment [25], the system named is Staphylococcus aureus. The experiment in a line: Antibacterial activity against Staphylococcus aureus assessed as zone of inhibition. It counts as functional.
The nature of experiment [26]: Induction of angiogenesis in human HUVEC cells. It counts as functional.
For experiment [27], the system named is MES-SA. The experiment in a line: Cytotoxicity against human MES-SA cells assessed as reduction in cell viability incubated for 72 hrs by MTT assay. The format is functional, cell-based.
Experiment [28] is described as follows: Antioxidant activity assessed as DPPH radical scavenging activity. It counts as functional.

Where “and” joins values, the source holds several entries; their conditions need not be identical. Identical values can stand only once. Some results are limits rather than exact numbers.

Experimental findings from ChEMBL document CHEMBL5230136, “A review: Biologically active 3,4-heterocycle-fused coumarins” (Eur J Med Chem, 2021) are described below.

For `COc1cccc(C2C3=C(CCCC3=O)Oc3c2c(=O)oc2ccccc32)c1` (stereo not drawn), in experiment [1], the IC50 – broadly, the midpoint of a concentration-inhibition curve – was found to be 73 µM.

For `Cc1ccc2nc3c(c(-c4ccccc4)c2c1)c(=O)oc1ccccc13`, in experiment [2], the half-maximal inhibitory concentration (IC50) is 0.05 µM.

On to `CCOc1nc(-c2ccco2)cc2c1c(=O)oc1ccccc12`, for which the Activity in experiment [3] worked out at 62%; in experiment [4] it was 89%.

Consider `CCN(CC)CCCC(C)Nc1cc2c(c(C)n1)c(=O)oc1ccccc12` (stereo not drawn), for which the half-maximal inhibitory concentration (IC50) in [5] and in [6] was 1.1 µM in each case.

Regarding `O=C1CCCc2nc3c(c(-c4ccccc4[N+](=O)[O-])c21)c(=O)oc1ccccc13`, the half-inhibitory concentration (IC50) in experiment [7] is 29.8 µM; in [8], 25.4 µM; in [9], over 100 µM; in [10], 58.6 µM; in experiment [11], 0.14 µM.

In the case of `O=C1CCCC(=O)C1`, the IC50 in [12] was 100 µM; in experiment [13], over 100 µM.

For `Cc1c(-c2nnn[nH]2)c(=O)oc2c1c(=O)oc1ccccc12`, the IC50 in [14] was 49 µM.

Consider `CCc1ccccc1-n1c(N)c(C#N)c2c(c(=O)oc3ccc4ccccc4c32)c1=O`, for which the Activity in experiment [15] came out at 193.07 µmol/L. In experiment [16], the IC50 was determined as 246 µM.

Regarding `N#CC1=C(N)Oc2c(c(=O)oc3ccccc23)C12C(=O)N(CCCCCCCCCCBr)c1ccccc12` (stereo not drawn), the half-inhibitory concentration (IC50) in experiment [17] and in experiment [18] was 39 µM each time.

For `O=C1CN=C2C3=C(N=CN2N1)Oc1c(c(=O)oc2ccccc12)C3`, the “inhibition zone (IZ)” value is 19 mm and 22 mm in experiment [19]; 20 mm in [21]; 22 mm in [22]; 21 mm in experiment [23]; 22 mm in experiment [24]; 20 mm in experiment [25]. In addition, in [20], the zone of inhibition at 20 µg/mL turned out to be 22 mm.

In turn, `CN1CCN(Cc2[se]c3c(c2Br)c(=O)oc2ccccc23)CC1` showed an Activity in [26] of 84%. The results for the IC50 in [27] and in [28] were 9.4 µM and 62 µM, respectively.
